Test results reported in PubChem BioAssay AID1508591.

Conditions: rat; liver microsomes; pH 7.4; 15.0 min; 1.0 µM

Structure (SMILES) | half-life [min]
Cc1ccc(S(=O)(=O)N2CCCc3cc(NS(=O)(=O)c4ccccc4)ccc32)cc1 | 1
O=c1[nH]cnc2c1ccn2C1OC(CO)C(O)C1O (stereo not drawn) | > 30
O=C(O)c1ccnc2cc(C(OCC3CCC(F)(F)CC3)c3ccccc3Cl)[nH]c12 (stereo not drawn) | > 30
Nc1c(-c2ccccc2)cc[nH]c1=O | > 30
COc1ccc(-c2nc(Nc3ccc(F)c(F)c3)c3ccccc3n2)cc1 | > 30
CCCNC(=O)[C@H]1O[C@H]1C(=O)N[C@H](C(=O)N1CCC[C@@H]1C(=O)OC)C(C)CC (stereo partly drawn) | > 30
CCc1oc2ccccc2c1C(=O)c1cc(I)c(O)c(I)c1 | 13.7
Nc1nc2c(s1)C(c1ccc(F)cc1F)CC(=O)N2 (stereo not drawn) | > 30
CC[S+](=O)([O-])Nc1ccccc1C(=O)Nc1nc(-c2ccccc2)cs1 | 14
C[C@@]1(c2ncncc2F)NC(=O)c2cc(-c3cn[nH]c3)ccc21 | > 30
O=c1cc(/C=C/c2c(F)cccc2Cl)[nH]c2ccccc12 | 17.8
Cn1cc(S(=O)(=O)N2CCCCCC2)cc1C(=O)Nc1ccc(Cl)c(C(F)(F)F)c1 | 5.98
COc1ccc(Cn2c(C(=O)O)c(CNCc3cccc(OC)c3)c3ccc(C)cc32)cc1 | 11.6
C[C@@H]1Cc2c([nH]c3cc(Cl)c(F)cc23)[C@]2(N1)C(=O)Nc1ccc(Cl)cc12 | > 30
O=C(Nc1ccccc1O)c1ccc(NC(=O)C2CC2)cc1 | > 30
CC[C@H]1CN(C)[C@H]2Cc3c([nH]c4ccccc34)C(=O)C[C@H]1[C@H]2C(=O)OC | 11.3
COc1cccc(-n2ncc3c2CCCC3NC(=O)c2ccccn2)c1 (stereo not drawn) | 11
Cc1ccc(-c2nc3ccccc3o2)cc1NC(=O)COc1ccccc1 | 3.5
COC12C(COC(N)=O)C3=C(C(=O)C(C)=C(N)C3=O)N1CC1C2N1C (stereo not drawn) | > 30
CCc1cc(Cl)c(OC)c(C(=O)NC[C@@H]2CCCN2CC)c1O | 1.71
O=S(=O)(Nc1nccs1)c1ccc(NCc2cccc(F)c2O)cc1 | 16
O=C(Nc1ccc(F)c(C(F)(F)F)c1)Nc1nnc(-c2ccncc2)s1 | > 30
CN(c1ncccc1CNc1nc(Nc2ccc3c(c2)CC(=O)N3)ncc1C(F)(F)F)S(C)(=O)=O | > 30
CNc1oc(-c2ccc(-c3ccccc3)cc2)nc1C#N | > 30
CC(=O)c1ccc(N[S+](=O)([O-])c2cccc(NC(=O)c3[nH]c(C)c(C(C)=O)c3C)c2)cc1 | 21
COc1cccc(CNCCSc2nnnn2C)c1OCc1ccc(Cl)cc1Cl | 1.35

Structure (SMILES) | half-life [min]
Fc1ccc(-c2nc(-c3ccncc3)nc3ccccc23)cc1F | 20
NC(=O)N1CCN(c2nc(-c3ccc(Br)cc3)cs2)CC1 | > 30
C#C[C@]1(OC(C)=O)CC[C@H]2[C@@H]3CCC4=C/C(=N/O)CC[C@@H]4[C@H]3CC[C@@]21CC | 3.98
Cn1nnnc1Sc1ncnc2scc(-c3ccc(F)cc3)c12 | 10.7
COc1cc2c(cc1Oc1cccc(N(C)C)c1)NC(=O)C21CCN(c2cnccn2)CC1 | 1.77
Cc1ccc(-c2cc(C(=O)Nc3ccc(C#N)cc3)c3ccccc3n2)cc1C | > 30
CC1CCCCN1c1ncnc(N)c1[N+](=O)[O-] (stereo not drawn) | 15
CCOc1ccc(CCNC(=O)c2cc3sccc3n2Cc2ccc(Cl)c(F)c2)cc1OCC | 1.75
CC1CCc2cc(F)ccc2N1C(=O)CSc1nnc2c(n1)[nH]c1ccccc12 (stereo not drawn) | 2.02
Brc1ccccc1-c1nc(NCc2ccc(-c3cccnc3)cc2)c2ccccc2n1 | 6.55
O=C(Nc1cc(Cc2ccccc2)ccn1)c1ccc(-c2cccc([N+](=O)[O-])c2)o1 | 4.8
CSc1nnc2c3ccccc3n(CCc3ccccc3)c2n1 | 1.69
OCc1ccc(-c2cc3c(ccn3Cc3cccnc3)c(C3=CCOCC3)n2)cc1 | 4.89
COc1ccc2[nH]c(=O)c(-c3noc(-c4ccc(F)cc4)n3)cc2c1 | > 30
Cc1ccccc1C(=O)N1CCc2cc(-n3cc(NC(=O)Cc4ccccc4)cn3)ccc21 | 11
Nc1ncnc(N2CCc3ccccc32)c1[N+](=O)[O-] | 8.6
Cn1c(=O)cc(C(=O)NC2CCCc3c2[nH]c2c(Cl)cccc32)c2ccccc21 (stereo not drawn) | 10.1
C1CCc2nc3c(nc2C1)CCCC3 | > 30
NC(=O)c1ccc(-c2nc3c([nH]2)CN(C(=O)CN2CCOCC2)CC3)cc1 | > 30
Cc1ccc(-n2nc(C)c3c(-c4ccc(O)c(O)c4)c(C#N)c(N)nc32)cc1C | 15
O=c1cc(N2CCOCC2)oc2c1ccc1ccccc12 | > 30
CCc1nc2c(sc3nc4c(cc32)COC(C)(C)C4)c(=O)n1Cc1ccco1 | 6.88
C[C@@H](c1ccc2nccn2c1)n1nnc2ncc(-c3cnn(C)c3)nc21 | > 30
CCOc1ccc(-c2nc(SCC(=O)Nc3ccc(C)c(C)c3)n3[nH]c(=O)cc3n2)cc1 | 19.9
Cc1ccc(S(=O)(=O)Nc2cnccc2C(=O)Nc2nc(-c3cc(Br)cs3)cs2)cc1 | > 30
Cc1c(-c2nsc(NC(=O)c3cccc(Cl)c3)n2)nnn1-c1ccccc1C(F)(F)F | > 30

Structure (SMILES) | half-life [min]
FC(F)(F)c1cccc(N2CCN(C(=S)Nc3nccc4ccccc34)CC2)c1 | > 30
Cc1cc(C)nc(NC(=S)N2CCN(c3ccc(C(F)(F)F)cc3[N+](=O)[O-])CC2)c1 | > 30
O=C(Nc1cccc(F)c1)c1cc(-c2ccc[nH]2)n[nH]1 | 9.45
O=C(Nc1ccc(OC(F)(F)F)cc1)c1sccc1NCc1ccnc2ccccc12 | 18.7
O=C(Nc1ncc(Cc2ccc(C(F)(F)F)cc2)s1)c1cnc(-c2ccccc2)s1 | > 30
COc1ncccc1-c1cc2c(ccn2CC2CCN([S+](C)(=O)[O-])CC2)c(N2CCOCC2)n1 | 13.9
CC(C)c1ccccc1-c1ncc(F)c(NC(C)(C)c2ccc(-n3ccnn3)cc2)n1 | 1.6
N#Cc1cc(-c2nc(Nc3ccc(F)c(F)c3)c3ccccc3n2)ccn1 | > 30
CSc1nc(N)cc(Oc2ccc(-c3nc(Nc4cccc(C(F)(F)F)c4)n[nH]3)cc2)n1 | 21.2
Oc1ccc(CNc2ccccc2F)c2cccnc12 | 3.7
CN1C(=O)c2ccccc2[S@](=O)c2ccc(C(=O)NCc3ccc(Cl)cc3)cc21 | 15
Nc1nc2c(s1)C(c1ccc(F)c(F)c1)CC(=O)N2 (stereo not drawn) | 29.7
CCc1ccc2oc(=O)cc(CN3CCN(c4ccccc4F)CC3)c2c1 | 3
Cc1ccc(S(=O)(=O)Nc2cnccc2C(=O)Nc2nc(-c3cnn(C)c3)cs2)cc1 | 13
COc1ccnc(NC(=S)N2CCN(c3cccc(C(F)(F)F)n3)CC2)c1 | 12
c1ccc(Nc2cc3c(cn2)CN(Cc2c[nH]c4ccccc24)CCN3)cc1 | 7.47
CC(C)(C)OC(=O)NC1CCN(c2nc(-c3ccc(Br)cc3)cs2)CC1 | > 30
Cc1cccc(S(=O)(=O)Nc2cnccc2C(=O)Nc2nc(-c3ccccc3)cs2)c1 | 6
Cc1cnc(-c2ccccc2OC(C)C)nc1NCc1ccc(-n2ccnn2)cc1 | 6.45
COc1cccc(NC(=O)c2cccc3c(=O)c4c([nH]c23)CCCC4)c1 | 16.3
CN(C)c1cccc(-c2ncnc(N3CCC(C(N)=O)CC3)n2)c1 | 5.7
CCOc1ccc(-c2nnc(SCC(=O)NCc3ccccc3Cl)o2)cc1 | 3.32
O=[S+]([O-])(Nc1ccc(C2CCNCC2)cc1)c1ccc(NCc2ccc(Br)cc2O)cc1 | > 30
CN(C)[C@@H]1CCN(c2cccc(Nc3nn4c(=O)c5ccccc5nc4s3)c2)C1 | > 30
O=C1CCc2cc(S(=O)(=O)Nc3ccc(F)c(Cl)c3)ccc2N1 | 20.5
CCN(CC)S(=O)(=O)c1cccc(C(=O)Nc2ccc(C#N)cc2)c1 | 3.8

Structure (SMILES) | half-life [min]
COc1cc(-c2c(C#N)c(N)nc3c2c(C)nn3-c2ccc(F)cc2)ccc1O | > 30
CC(C)c1ccccc1-c1ncc(F)c(NC2(c3ccc(-c4cccnc4)cc3)CC2)n1 | 8.9
O=C(O)Cn1c(C(=O)Nc2nc(-c3ccccc3Cl)cs2)cc2ccccc21 | > 30
O=C(O)c1ccc(-c2c[nH]c3ncc(-c4ccccc4)cc23)cc1C1CCCC1 | > 30
Fc1ccc(-c2csc3ncnc(NCc4ccc5c(c4)OCO5)c23)cc1 | 19.2
O=C(c1cnc(N2CCCCC2)c2ccccc12)N1CCN(c2ccc(Cl)cc2)CC1 | 2.8
Cc1cn(CCN2CCN(c3ccccc3-c3cc(C#N)cc(C(=O)NCCCN4CCCC4)c3)CC2)c2ccccc12 | > 30
Nc1ncnc2c1c(-c1ccc(Oc3ccccc3)cc1)cn2C1CCCC1 | 10.9
COc1cc2ncnc(Oc3cccc(NC(=O)Nc4cc(C(C)(C)C(F)(F)F)on4)c3)c2cc1OC | > 30
O=C1Nc2ccccc2C1Cc1cc(Cl)c(O)c(Cl)c1 (stereo not drawn) | 24
CCOc1ccc(-c2csc(N3CCC(C(N)=O)CC3)n2)cc1 | 9.24
CCOc1ccc(CCN(C)C(=O)c2cc3sccc3n2Cc2ccccc2)cc1OCC | 1.7
NS(=O)(=O)c1ccc(Cc2c(-c3cccc(-c4ccccc4)c3)nn(-c3nc(C(=O)O)cs3)c2CC2CC2)cc1 | > 30
NC(=O)C1CCN(c2nc(-c3ccccc3Cl)cs2)CC1 | 4.02
CCOC(=O)c1csc(NC(=O)c2ccncc2NS(=O)(=O)c2ccc(C)cc2)n1 | 1.9
O=S(=O)(c1ccc(Cl)cc1)c1ccccn1 | > 30
Cc1cccc(C)c1C(=O)Nc1cccc([S+](=O)([O-])N2CCCCCC2)c1 | 1.6
Cc1sc2c(c1C)C(c1ccc(Cl)cc1)=N[C@H](CC(=O)NCCCCNC(=O)COc1cccc3c1C(=O)N([C@H]1CCC(=O)NC1=O)C3=O)c1nnc(C)n1-2 | 4.93
Cc1ccc(NC(=O)NCC2CCN(Cc3cccc(Cl)c3)CC2)cc1Cl | 14.1
O=S(=O)(Nc1ccc(S(=O)(=O)Nc2nccs2)cc1)c1ccc2ccccc2c1 | > 30
CSc1ccc(/C=C/c2nc3ccccc3n2S(=O)(=O)c2ccc(Br)cc2)cc1 | 6.3
Cc1cc(C)nc(NC(=S)N2CCN(c3ccc(Cl)cc3F)CC2)c1 | > 30
CC(C)c1ccc(CC(=O)N2CCCc3ncc(C(=O)Nc4cccnc4)cc32)cc1 | 5.67
CCN1CCN(C(=O)CCCn2nc(C)c3c(C)n(-c4ccc(C)cc4)nc3c2=O)CC1 | 22.2
CC(C)(C)c1cc(NC(=O)Nc2ccc(-c3cn4c(n3)sc3cc(OCCN5CCOCC5)ccc34)cc2)no1 | > 30
